Measured values published in US6653303B1, “Cycloalkyl, lactam, lactone and related compounds, pharmaceutical compositions comprising same, and methods for inhibiting β-amyloid peptide release and/or its synthesis by use of such compounds” (Athena Neurosciences, Inc., priority 1996, dated 2003).

melting point	Compound
100 °C	C[C@H](NC(=O)Cc1cc(F)cc(F)c1)C(=O)NC1C(=O)NC(c2ccccn2)c2ccccc21 (stereo partly drawn) [Example 5-37, 4-(N′-(3,5-Difluorophenylacetyl)-L-alaninyl)amino-1-(pyrid-2-yl)-1,2,3,4-tetrahydroisoquinolin-3-one]
200 to 202 °C	C[C@H](NC(=O)Cc1ccccc1)C(=O)NC1CCCNC(=O)C1 (stereo partly drawn) [Example 5-18, 3-(N′-(Phenylacetyl)-L-alaninyl)amino-ε-caprolactam]
221 to 222 °C	CN1C(=O)C(NC(=O)[C@@H](NC(=O)Cc2cc(F)cc(F)c2)C(C)(C)C)N=C(c2ccccc2)c2ccccc21 (some centres unmarked)
232 to 233 °C	CC(C)N1C(=O)C(NC(=O)[C@H](C)NC(=O)Cc2cc(F)cc(F)c2)C(=O)N(C(C)C)c2ccccc21 [Example 8-146, 3-[N′-(3,5-Difluorophenylacetyl)-L-alaninyl]amino-2,4-dioxo-1,5-bis-(1-methylethyl)-2,3,4,5-tetrahydro-1H-1,5-benzodiazepine]
243 to 244 °C	C[C@H](NC(=O)Cc1cc(F)cc(F)c1)C(=O)NC1C(=O)NCc2ccccc21 (stereo partly drawn) [Example 5-7, 4-(N′-(3,5-Difluorophenylacetyl)-L-alaninyl)amino-1,2,3,4-tetrahydroisoquinolin-3-one]
106 to 107 °C	C[C@H](NC(=O)Cc1cc(F)cc(F)c1)C(=O)NC1C(=O)NC(Cc2ccccc2)c2ccccc21 (stereo partly drawn) [Example 5-35, 4-(N′-(3,5-Difluorophenylacetyl)-L-alaninyl)amino-1-benzyl-1,2,3,4-tetrahydroisoquinolin-3-one]
100 to 120 °C	C[C@H](NC(=O)Cc1cc(F)cc(F)c1)C(=O)NC1C(=O)NC(c2cccnc2)c2ccccc21 (stereo partly drawn) [Example 5-38, 4-(N′-(3,5-Difluorophenylacetyl)-L-alaninyl)amino-1-(pyrid-3-yl)-1,2,3,4-tetrahydroisoquinolin-3-one]
240 to 241 °C	C[C@H](NC(=O)C(O)c1cc(F)cc(F)c1)C(=O)NC1N=C(c2ccccc2)c2ccccc2N(C)C1=O (single isomer, unassigned)
188 to 191 °C	CCN1C(=O)[C@@H](NC(=O)[C@H](C)NC(=O)Cc2cc(F)cc(F)c2)COc2ccccc21 [Example 6-11, 3-(S)-(N′-(3,5-Difluorophenylacetyl)-L-alaninyl)amino-1-ethyl-5-oxa-1,3,4,5-tetrahydro-2H-1-benzazepin-2-one]
205 to 206 °C	CC1NC(=O)C(NC(=O)[C@H](C)NC(=O)Cc2cc(F)cc(F)c2)c2ccccc21 (stereo partly drawn) [Example 5-9, 4-(N′-(3,5-Difluorophenylacetyl)-L-alaninyl)amino-1-methyl-1,2,3,4-tetrahydroisoquinolin-3-one]
203 to 205 °C	C[C@H](NC(=O)Cc1cc(F)cc(F)c1)C(=O)NC1N=C(c2ccccc2)c2ccccc2N(CC2CC2)C1=O (some centres unmarked)
196 to 199 °C	C[C@H](NC(=O)Cc1cc(F)cc(F)c1)C(=O)NC1Cc2ccccc2N(Cc2ccccc2)C1=O (stereo partly drawn) [Example 5-6, 1-Benzyl-3-(N′-(3,5-difluorophenylacetyl)-L-alaninyl)amino-1,2,3,4-tetrahydroquinolin-2-one]
> 220 °C	C[C@H](NC(=O)Cc1cc(F)cc(F)c1)C(=O)NC1CCCCCNC(=O)C1 (stereo partly drawn) [Example 5-33, 3-(N′-(3,5-Difluorophenylacetyl)-L-alaninyl)amino-8-octanelactam]
200 to 205 °C	C[C@H](NC(=O)Cc1cc(F)cc(F)c1)C(=O)NC1C(=O)NC(c2ccccc2)c2ccccc21 (single isomer, unassigned) [Example 5-10, 4-(N′-(3,5-Difluorophenylacetyl)-L-alaninyl)amino-1-phenyl-1,2,3,4tetrahydroisoquinolin-3-one]
228 to 229 °C	CC(C)[C@H](NC(=O)Cc1cc(F)cc(F)c1)C(=O)NC1N=C(c2ccccc2)c2ccccc2N(C)C1=O (some centres unmarked)
93 to 95 °C	CCOC(=O)[C@H](C)NC(=O)Cc1cc(F)cc(F)c1 [Example B64, N-[(3,5-Difluorophenyl)acetyl]alanine Ethyl Ester]
159 to 166 °C	C[C@H](NC(=O)Cc1cc(F)cc(F)c1)C(=O)NC1C(=O)NCc2cc(Cc3ccccc3)ccc21 (stereo partly drawn) [Example 5-34, 4-(N′-(3,5-Difluorophenylacetyl)-L-alaninyl)amino-7-benzyl-1,2,3,4-tetrahydroisoquinolin-3-one]
255 to 256 °C	C[C@H](NC(=O)C(O)c1cc(F)cc(F)c1)C(=O)NC1C(=O)N(C)c2ccccc2N(c2ccccc2)C1=O (single isomer, unassigned)
195 to 200 °C	C[C@H](NC(=O)Cc1cc(F)cc(F)c1)C(=O)NC1C(=O)NCc2cc(F)ccc21 (single isomer, unassigned) [Example 5-12, 4(N′-(3,5-Difluorophenylacetyl)-L-alaninyl)amino-7-fluoro-1,2,3,4tetrahydroisoquinolin-3-one]
197 to 198 °C	CC(C)CN1C(=O)C(NC(=O)[C@H](C)NC(=O)Cc2cc(F)cc(F)c2)C(=O)N(CC(C)C)c2ccccc21 [Example 8-152, 3-[N′-(3,5-Difluorophenylacetyl)-L-alaninyl]amino-2,4-dioxo-1,5-bis-(2-methylpropyl)-2,3,4,5-tetrahydro-1H-1,5-benzodiazepine]
155 to 158 °C	CCN1C(=O)C(NC(=O)[C@H](C)NC(=O)Cc2cc(F)cc(F)c2)N=C(c2ccccc2)c2ccccc21 (some centres unmarked)

melting point	Compound
110 to 114 °C	C[C@H](NC(=O)Cc1cc(F)cc(F)c1)C(=O)N[C@H]1COc2ccccc2N(C)C1=O [Example 6-10, 3-(S)-(N′-(3,5-Difluorophenylacetyl)-L-alaninyl)amino-1-methyl-5-oxa-1,3,4,5-tetrahydro-2H-1-benzazepin-2-one]
199 °C	CC(Nc1ccc(Cl)c(Cl)c1)C(=O)NC1CCCNC(=O)C1 (racemic) [Example 5-31, 3-(N′-(3,4-Dichlorophenyl)-D,L-alaninyl)amino-ε-caprolactam]
205 to 206 °C	CCC(=S)N[C@@H](C)C(=O)NC1N=C(c2ccccc2)c2ccccc2N(C)C1=O (some centres unmarked)
185 to 187 °C	CC1CC(NC(=O)Cc2cc(F)cc(F)c2)C(=O)N(C)c2ccccc21 (centres unmarked) [Example 6-9, 3-(3,5-Difluorophenylacetyl)amino-1,5-dimethyl-1,3,4,5-tetrahydro-2H-1-benzazepin-2-one]
144 to 145 °C	C[C@H](NC(=O)Cc1cc(F)cc(F)c1)C(=O)NC1C(=O)N(Cc2ccccc2)Cc2ccccc21 (stereo partly drawn) [Example 5-8, 4-(N′-(3,5-Difluorophenylacetyl)-L-alaninyl)amino-2-benzyl-1,2,3,4-tetrahydroisoquinolin-3-one]
206 to 207 °C	C[C@H](NC(=O)Cc1cc(F)cc(F)c1)C(=O)NC1C(=O)N(C)c2ccccc2N(C)C1=O [Example 8-150, 3-[N′-(3,5-Difluorophenylacetyl)-L-alaninyl]amino-2,4-dioxo-1,5-bis-methyl-2,3,4,5-tetrahydro-1H-1,5-benzodiazepine]
236 to 239 °C	CN1C(=O)C(NC(=O)Cc2cc(F)cc(F)c2)N=C(c2ccccc2)c2ccccc21 (centres unmarked)
119 to 120 °C	C[C@H](NC(=O)C(F)c1cc(F)cc(F)c1)C(=O)NC1N=C(c2ccccc2)c2ccccc2N(C)C1=O (single isomer, unassigned)
62 to 64 °C	CC(C)COC(=O)[C@H](C)NC(=O)CC1CCCC1 [Example B71, N-(Cyclopentylacetyl)-L-alanine iso-Butyl Ester]
83 to 86 °C	COC(=O)[C@@H](NC(=O)CC1CCCC1)c1ccccc1 [Example B77, N-(Cyclopentylacetyl)-L-phenylglycine Methyl Ester]
92 to 93 °C	CC(C)COC(=O)[C@H](C)NC(=O)CC1CCCCC1 [Example B70, N-(Cyclohexylacetyl)-L-alanine iso-Butyl Ester]
174 to 175 °C	C[C@H](NC(=O)Cc1cc(F)cc(F)c1)C(=O)NC1C(=O)N(C)Cc2ccccc21 (stereo partly drawn) [Example 5-14, 4-(N′-(3,5-Difluorophenylacetyl)-L-alaninyl)amino-2-methyl-1,2,3,4-tetrahydroisoquinolin-3-one]
> 240 °C (dec.)	C[C@H](NC(=O)Cc1cc(F)cc(F)c1)C(=O)NC1C(=O)NCc2cc(-c3ccccc3)ccc21 (stereo partly drawn) [Example 5-16, 4-(N′-(3,5-Difluorophenylacetyl)-L-alaninyl)amino-7-phenyl-1,2,3,4-tetrahydroisoquinolin-3-one]
75 to 76 °C	C[C@H](NC(=O)Cc1cc(F)cc(F)c1)C(=O)NC1C(=O)N(CCc2ccccc2)Cc2ccccc21 (stereo partly drawn) [Example 5-13, 4-(N′-(3,5-Difluorophenylacetyl)-L-alaninyl)amino-2-phenethyl-1,2,3,4-tetrahydroisoquinolin-3-one]
115 to 119 °C	CC1CC(NC(=O)[C@H](C)NC(=O)Cc2cc(F)cc(F)c2)C(=O)N(C)c2ccccc21 (stereo partly drawn) [Example 6-8, 3-(N′-(3,5-Difluorophenylacetyl)-L-alaninyl)amino-1,5-dimethyl-1,3,4,5-tetrahydro-2H-1-benzazepin-2-one]
100 °C	C[C@H](NC(=O)Cc1cc(F)cc(F)c1)C(=O)NC1C(=O)NC(c2ccncc2)c2ccccc21 (stereo partly drawn) [Example 5-39, 4-(N′-(3,5-Difluorophenylacetyl)-L-alaninyl)amino-1-(pyrid-4-yl)-1,2,3,4-tetrahydroisoquinolin-3-one]
119 to 129 °C	C[C@H](NC(=O)C(O)C1CCCC1)C(=O)NC1C(=O)N(CC(C)(C)C)c2ccccc2N(CC(C)(C)C)C1=O (stereo partly drawn) [Example 8-162, 3-[N′-(Cyclopentyl-α-hydroxyacetyl)-L-alaninyl]amino-2,4-dioxo-1,5-bis-(2,2-dimethylpropyl)-2,3,4,5-tetrahydro-1H-1,5-benzodiazepine]
128 to 129 °C	C[C@H](NC(=O)C(=O)c1cc(F)cc(F)c1)C(=O)NC1N=C(c2ccccc2)c2ccccc2N(C)C1=O (some centres unmarked)
49 to 51 °C	CC(C)COC(=O)[C@H](C)NC(=O)CC1=CCCCC1 [Example B72, N-[(Cyclohex-1-enyl)acetyl]-L-alanine iso-Butyl Ester]
156 to 159 °C	C[C@H](NC(=O)Cc1cc(F)cc(F)c1)C(=O)N[C@@H]1CSc2ccccc2N(C)C1=O [Example 6-12, 3-(S)-(N′-(3,5-Difluorophenylacetyl)-L-alaninyl)amino-1-methyl-5-thia-1,3,4,5-tetrahydro-2H-1-benzazepin-2-one]
